According to ChEMBL document CHEMBL5329195, “Identification of novel glucocerebrosidase chaperones by unexpected skeletal rearrangement reaction” (Bioorg Med Chem Lett, 2023):
The source made the active and inactive calls. The calls are words filed in the database; no cut-off is given here.

Key:
[1] = Solubility of the compound at pH 7.4; format: physicochemical; conditions: buffer
[2] = Solubility of the compound at pH 1.2; format: physicochemical; conditions: buffer
[3] = Stability of the compound in human liver microsomes assessed as intrinsic clearance; format: ADME, Microsome; conditions: read-out: CLH
[4] = molecular target: T1, Lysosomal acid glucosylceramidase (Homo sapiens, UniProt P04062, N409S); assay: Chaperone activity at GCase N370S GBA mutant in patient derived fibroblast cells using 4-methylumbelliferyl-beta-D-glucopyranoside as substrate incubated for 5 days by fluorescence based analysis; format: cell-based
[5] = molecular target: T1, Lysosomal acid glucosylceramidase; assay: Inhibition of GCase N370S GBA mutant in patient derived fibroblast cells using 4-methylumbelliferyl-beta-D-glucopyranoside as substrate incubated for 5 days by fluorescence based analysis; format: cell-based
[6] = Stability of the compound in mouse liver microsomes assessed as intrinsic clearance; format: ADME, Microsome; conditions: read-out: CLH
[7] = molecular target: Voltage-gated inwardly rectifying potassium channel KCNH2 (Homo sapiens, UniProt Q12809); assay: Inhibition of human ERG; format: toxicity
[8] = system: T2, Lysosomal acid glucosylceramidase (Homo sapiens), P04062 [N409S]; assay: Inhibition of GCase N370S GBA mutant in patient derived fibroblast cells using 4-methylumbelliferyl-beta-D-glucopyranoside as substrate incubated for 5 days by fluorescence based analysis relative to control; format: cell-based; conditions: time 5.0 day
T2 sequence (whole entry): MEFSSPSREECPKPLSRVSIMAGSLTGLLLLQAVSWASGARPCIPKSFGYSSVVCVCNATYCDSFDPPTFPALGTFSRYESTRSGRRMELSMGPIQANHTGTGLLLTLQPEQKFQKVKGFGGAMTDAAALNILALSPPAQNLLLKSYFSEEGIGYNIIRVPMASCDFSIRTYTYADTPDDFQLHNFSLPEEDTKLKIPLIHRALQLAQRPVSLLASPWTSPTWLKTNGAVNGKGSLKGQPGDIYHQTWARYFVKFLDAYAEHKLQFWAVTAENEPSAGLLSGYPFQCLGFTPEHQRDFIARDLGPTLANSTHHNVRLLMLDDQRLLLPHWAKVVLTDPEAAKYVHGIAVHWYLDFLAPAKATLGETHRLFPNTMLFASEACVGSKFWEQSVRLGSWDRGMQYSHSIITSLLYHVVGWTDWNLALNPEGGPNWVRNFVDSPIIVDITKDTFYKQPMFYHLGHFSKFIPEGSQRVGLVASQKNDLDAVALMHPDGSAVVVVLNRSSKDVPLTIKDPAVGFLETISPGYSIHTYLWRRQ

[9] = system: T2, Lysosomal acid glucosylceramidase (Homo sapiens), P04062 [N409S]; assay: Chaperone activity at GCase N370S GBA mutant in patient derived fibroblast cells using 4-methylumbelliferyl-beta-D-glucopyranoside as substrate incubated for 5 days by fluorescence based analysis relative to control; format: cell-based; conditions: time 5.0 day
[10] = Stability of the compound in DMSO; format: physicochemical
[11] = Stability of the compound in JPI fluid at pH 1.2; format: physicochemical; conditions: buffer

Sequence of Voltage-gated inwardly rectifying potassium channel KCNH2 (Q12809 whole entry): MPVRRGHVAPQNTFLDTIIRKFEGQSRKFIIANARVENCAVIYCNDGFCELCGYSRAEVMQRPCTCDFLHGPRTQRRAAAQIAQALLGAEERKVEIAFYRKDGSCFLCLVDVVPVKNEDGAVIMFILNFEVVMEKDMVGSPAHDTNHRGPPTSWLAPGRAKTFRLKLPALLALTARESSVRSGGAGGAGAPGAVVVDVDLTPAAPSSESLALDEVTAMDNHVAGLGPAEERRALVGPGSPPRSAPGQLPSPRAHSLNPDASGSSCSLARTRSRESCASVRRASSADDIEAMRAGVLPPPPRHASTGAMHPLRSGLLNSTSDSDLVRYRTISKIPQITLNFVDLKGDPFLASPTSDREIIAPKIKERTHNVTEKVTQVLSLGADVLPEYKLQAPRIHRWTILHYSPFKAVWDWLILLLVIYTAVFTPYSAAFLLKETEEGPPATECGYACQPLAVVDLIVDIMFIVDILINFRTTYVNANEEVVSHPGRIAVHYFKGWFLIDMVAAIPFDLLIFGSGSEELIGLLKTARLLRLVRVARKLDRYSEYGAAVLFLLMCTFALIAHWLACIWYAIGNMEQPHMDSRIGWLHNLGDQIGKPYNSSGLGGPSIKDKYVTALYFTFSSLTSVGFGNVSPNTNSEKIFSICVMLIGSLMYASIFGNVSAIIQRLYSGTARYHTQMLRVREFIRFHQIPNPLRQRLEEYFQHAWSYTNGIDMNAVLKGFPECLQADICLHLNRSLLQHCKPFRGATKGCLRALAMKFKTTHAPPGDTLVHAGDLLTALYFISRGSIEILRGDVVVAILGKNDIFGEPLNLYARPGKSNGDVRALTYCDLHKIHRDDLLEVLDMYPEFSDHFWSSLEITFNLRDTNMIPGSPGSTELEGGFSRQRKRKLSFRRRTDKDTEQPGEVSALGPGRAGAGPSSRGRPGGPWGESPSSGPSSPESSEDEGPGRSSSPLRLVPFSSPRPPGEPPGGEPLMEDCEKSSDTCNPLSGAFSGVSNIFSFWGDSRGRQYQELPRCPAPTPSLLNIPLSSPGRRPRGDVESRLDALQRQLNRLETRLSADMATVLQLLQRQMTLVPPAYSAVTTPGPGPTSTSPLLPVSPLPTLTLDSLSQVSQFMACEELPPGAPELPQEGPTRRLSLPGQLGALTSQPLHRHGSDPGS

Row | SMILES | EC50 ([4]; read-out: EC50) | Emax [9] | also measured
1 | Cc1cc2n(n1)C(O)[C@H](n1nnc3ccccc31)[C@@H](c1ccccc1)N2 (some centres not stated) | 5.6 µM | – | Stability [10]: Stable; Stability [11]: Stable
2 | OC[C@H]1CNC[C@@H](O)[C@@H]1O | – | 103% | Emax [8]: 103%
3 | O[C@@H]1c2c(-c3ccccc3)n[nH]c2N[C@H](c2ccccc2Cl)[C@H]1n1nnc2ccccc21 (racemic) | – | inactive | EC50 ([4]; fibroblast): Not Active
4 | O[C@@H]1c2c(C3CC3)n[nH]c2N[C@H](c2ccccc2Cl)[C@H]1n1nnc2ccccc21 (racemic) | 0.083 µM | 172% | Emax [8]: 95%; IC50 ([5]; read-out: IC50): 0.074 µM
5 | Cc1n[nH]c2c1[C@@H](O)[C@H](n1nnc3ccccc31)[C@@H](c1cccc(Cl)c1Cl)N2 (racemic) | 0.14 µM | 140% | –
6 | O[C@@H]1c2ccccc2N[C@H](c2ccccc2)[C@H]1n1nnc2ccccc21 (racemic) | – | inactive | EC50 ([4]; fibroblast): Not Active
7 | O[C@@H]1c2cnccc2N[C@H](c2ccccc2Cl)[C@H]1n1nnc2ccccc21 (racemic) | > 16 µM | > 239% | –
8 | Cc1n[nH]c2c1[C@@H](O)[C@H](n1nnc3ccccc31)[C@@H](C1CCCCCC1)N2 (racemic) | 0.23 µM | 170% | –
9 | Cc1n[nH]c2c1[C@@H](O)[C@H](n1nnc3ccccc31)[C@@H](C1CCCCC1)N2 (racemic) | 0.37 µM | 180% | Emax [8]: 102%; IC50 ([5]; read-out: IC50): 0.65 µM
10 | Cc1cccc([C@H]2Nc3[nH]nc(C)c3[C@@H](O)[C@@H]2n2nnc3ccccc32)c1Cl (racemic) | 0.15 µM | 147% | –
11 | Cc1n[nH]c2c1[C@@H](O)[C@H](n1nnc3ccccc31)[C@@H](C1CCOCC1)N2 (racemic) | > 16 µM | > 65% | –
12 | Cc1n[nH]c2c1[C@@H](O)[C@H](n1nnc3ccccc31)[C@@H](c1ccc(Cl)cc1Cl)N2 (racemic) | 0.74 µM | 150% | –
13 | CC(C)(C)c1n[nH]c2c1[C@@H](O)[C@H](n1nnc3ccccc31)[C@@H](c1ccccc1Cl)N2 (racemic) | 7.4 µM | 132% | –
14 | Cc1n[nH]c2c1[C@@H](O)[C@H](n1nnc3ccccc31)[C@@H](c1cc(Cl)ccc1Cl)N2 (racemic) | 0.72 µM | 145% | –
15 | Cc1n[nH]c2c1[C@@H](O)[C@H](n1nnc3ccccc31)[C@@H](c1cccc(F)c1Cl)N2 (racemic) | 0.11 µM | 148% | –
16 | Cc1n[nH]c2c1[C@@H](O)[C@H](n1nnc3ccccc31)[C@@H](C1CC1)N2 (racemic) | – | inactive | EC50 ([4]; fibroblast): Not Active
17 | Cc1n[nH]c2c1[C@@H](O)[C@H](n1nnc3ccccc31)[C@@H](C1CCCC1)N2 (racemic) | 1.9 µM | 150% | –
18 | Cc1n[nH]c2c1[C@@H](O)[C@H](n1nnc3ccccc31)[C@@H](C)N2 (racemic) | – | inactive | EC50 ([4]; fibroblast): Not Active
19 | O[C@@H]1c2ccncc2N[C@H](c2ccccc2Cl)[C@H]1n1nnc2ccccc21 (racemic) | 0.57 µM | 151% | Emax [8]: 99%; IC50 ([5]; read-out: IC50): 1.8 µM

More lines, main results first:

Row | EC50 ([4]; read-out: EC50) | Emax [9] | SMILES | also measured
20 | 0.086 µM | – | Cc1n[nH]c2c1[C@@H](O)[C@H](n1nnc3ccccc31)[C@@H](c1ccccc1Br)N2 [listing 1 of 2 here] | solubility [1]: > 100 µM; solubility [2]: > 100 µM; microsomal CLint [3]: 22.7 µL/min/mg; IC50 ([5]; read-out: IC50): 0.33 µM; microsomal CLint [6]: 31.4 µL/min/mg; IC50 [7]: > 25 µM
21 | – | inactive | Cc1n[nH]c2c1[C@H](O)[C@@H](n1nnc3ccccc31)[C@H](c1ccccc1Cl)N2 | Emax [8]: inactive; EC50 ([4]; fibroblast): Not Active; IC50 ([5]; fibroblast): Not Active
22 | 0.076 µM | – | Cc1n[nH]c2c1[C@@H](O)[C@H](n1nnc3ccccc31)[C@@H](c1ccccc1Cl)N2 [listing 1 of 2 here] | solubility [1]: > 100 µM; solubility [2]: > 100 µM; microsomal CLint [3]: 9.61 µL/min/mg; IC50 ([5]; read-out: IC50): 0.11 µM; microsomal CLint [6]: 15.7 µL/min/mg; IC50 [7]: > 25 µM
23 | 1.1 µM | – | Cc1n[nH]c2c1[C@@H](O)[C@H](n1nnc3ccccc31)[C@@H](c1ccccc1)N2 [listing 1 of 2 here] | solubility [1]: > 100 µM; solubility [2]: > 100 µM; microsomal CLint [3]: 5.01 µL/min/mg; IC50 ([5]; read-out: IC50): 3.2 µM; microsomal CLint [6]: 9.88 µL/min/mg
24 | – | inactive | Cc1n[nH]c2c1[C@H](O)[C@@H](n1nnc3ccccc31)[C@H](c1ccccc1)N2 | Emax [8]: inactive; EC50 ([4]; fibroblast): Not Active; IC50 ([5]; fibroblast): Not Active
25 | – | inactive | Cc1n[nH]c2c1[C@H](O)[C@@H](n1nnc3ccccc31)[C@H](c1ccccc1Br)N2 | EC50 ([4]; fibroblast): Not Active
26 | – | 137% | Cc1n[nH]c2c1[C@@H](O)[C@H](n1nnc3ccccc31)[C@@H](c1ccccc1)N2 [listing 2 of 2 here] | Emax [8]: 95%
27 | – | 170% | Cc1n[nH]c2c1[C@@H](O)[C@H](n1nnc3ccccc31)[C@@H](c1ccccc1Br)N2 [listing 2 of 2 here] | Emax [8]: 101%
28 | – | 163% | Cc1n[nH]c2c1[C@@H](O)[C@H](n1nnc3ccccc31)[C@@H](c1ccccc1Cl)N2 [listing 2 of 2 here] | Emax [8]: 85%
29 | 0.47 µM | 160% | Cc1n[nH]c2c1[C@@H](O)[C@H](n1nnc3ccccc31)[C@@H](c1ccccc1C(F)(F)F)N2 (racemic) | Emax [8]: 103%; IC50 ([5]; read-out: IC50): 1.1 µM
30 | 1.1 µM | 158% | Cc1cccc([C@H]2Nc3[nH]nc(C)c3[C@@H](O)[C@@H]2n2nnc3ccccc32)c1 (racemic) | –
31 | 0.2 µM | – | Cc1n[nH]c2c1[C@@H](O)[C@H](n1nnc3ccccc31)[C@@H](c1ccccc1Br)N2 (racemic) [listing 1 of 2 here] | –
32 | 1.1 µM | 157% | Cc1ccc([C@H]2Nc3[nH]nc(C)c3[C@@H](O)[C@@H]2n2nnc3ccccc32)cc1 (racemic) | –
33 | > 16 µM | > 40% | O[C@@H]1c2cn[nH]c2N[C@H](c2ccccc2)[C@H]1n1nnc2ccccc21 (racemic) | –
34 | 0.14 µM | – | Cc1n[nH]c2c1[C@@H](O)[C@H](n1nnc3ccccc31)[C@@H](c1ccccc1Cl)N2 (racemic) [listing 1 of 2 here] | –
35 | – | inactive | O[C@@H]1c2c(C3CCCC3)n[nH]c2N[C@H](c2ccccc2)[C@H]1n1nnc2ccccc21 (racemic) | EC50 ([4]; fibroblast): Not Active
36 | – | inactive | COCc1n[nH]c2c1[C@@H](O)[C@H](n1nnc3ccccc31)[C@@H](c1ccccc1)N2 (racemic) | EC50 ([4]; fibroblast): Not Active
37 | 1.4 µM | – | Cc1n[nH]c2c1[C@@H](O)[C@H](n1nnc3ccccc31)[C@@H](c1ccccc1)N2 (racemic) [listing 1 of 2 here] | –
38 | 3.3 µM | 145% | COc1ccccc1[C@H]1Nc2[nH]nc(C)c2[C@@H](O)[C@@H]1n1nnc2ccccc21 (racemic) | –
39 | 1.2 µM | 137% | Cc1n[nH]c2c1[C@@H](O)[C@H](n1nnc3ccccc31)[C@@H](c1cccc(F)c1)N2 (racemic) | –
40 | 1.9 µM | 158% | Cc1ccccc1[C@H]1Nc2[nH]nc(C)c2[C@@H](O)[C@@H]1n1nnc2ccccc21 (racemic) | Emax [8]: 97%; IC50 ([5]; read-out: IC50): 4.6 µM
41 | 2.2 µM | 61% | Cc1n[nH]c2c1[C@@H](O)[C@H](n1nnc3ccccc31)[C@@H](c1ccc(F)cc1)N2 (racemic) | –
42 | 0.48 µM | 191% | CCc1n[nH]c2c1[C@@H](O)[C@H](n1nnc3ccccc31)[C@@H](c1ccccc1Cl)N2 (racemic) | –
43 | 0.97 µM | 137% | Cc1n[nH]c2c1[C@@H](O)[C@H](n1nnc3ccccc31)[C@@H](c1ccccc1F)N2 (racemic) | Emax [8]: 103%; IC50 ([5]; read-out: IC50): 1.8 µM
44 | – | 173% | Cc1n[nH]c2c1[C@@H](O)[C@H](n1nnc3ccccc31)[C@@H](c1ccccc1)N2 (racemic) [listing 2 of 2 here] | –
45 | – | 164% | Cc1n[nH]c2c1[C@@H](O)[C@H](n1nnc3ccccc31)[C@@H](c1ccccc1Br)N2 (racemic) [listing 2 of 2 here] | –
46 | – | 160% | Cc1n[nH]c2c1[C@@H](O)[C@H](n1nnc3ccccc31)[C@@H](c1ccccc1Cl)N2 (racemic) [listing 2 of 2 here] | –
